Values quoted from earlier work, collected in US20050090475A1, “Extended triphasic contraceptive regimens” (priority 2003, published 2005).

Tests used:
[1] = tested on: serum hormone binding globulin (SHBG); details: in vivo
[2] = target: T1, endometrial progesterone receptors (Homo sapiens, UniProt P06401)
T1 sequence (P06401 1-933): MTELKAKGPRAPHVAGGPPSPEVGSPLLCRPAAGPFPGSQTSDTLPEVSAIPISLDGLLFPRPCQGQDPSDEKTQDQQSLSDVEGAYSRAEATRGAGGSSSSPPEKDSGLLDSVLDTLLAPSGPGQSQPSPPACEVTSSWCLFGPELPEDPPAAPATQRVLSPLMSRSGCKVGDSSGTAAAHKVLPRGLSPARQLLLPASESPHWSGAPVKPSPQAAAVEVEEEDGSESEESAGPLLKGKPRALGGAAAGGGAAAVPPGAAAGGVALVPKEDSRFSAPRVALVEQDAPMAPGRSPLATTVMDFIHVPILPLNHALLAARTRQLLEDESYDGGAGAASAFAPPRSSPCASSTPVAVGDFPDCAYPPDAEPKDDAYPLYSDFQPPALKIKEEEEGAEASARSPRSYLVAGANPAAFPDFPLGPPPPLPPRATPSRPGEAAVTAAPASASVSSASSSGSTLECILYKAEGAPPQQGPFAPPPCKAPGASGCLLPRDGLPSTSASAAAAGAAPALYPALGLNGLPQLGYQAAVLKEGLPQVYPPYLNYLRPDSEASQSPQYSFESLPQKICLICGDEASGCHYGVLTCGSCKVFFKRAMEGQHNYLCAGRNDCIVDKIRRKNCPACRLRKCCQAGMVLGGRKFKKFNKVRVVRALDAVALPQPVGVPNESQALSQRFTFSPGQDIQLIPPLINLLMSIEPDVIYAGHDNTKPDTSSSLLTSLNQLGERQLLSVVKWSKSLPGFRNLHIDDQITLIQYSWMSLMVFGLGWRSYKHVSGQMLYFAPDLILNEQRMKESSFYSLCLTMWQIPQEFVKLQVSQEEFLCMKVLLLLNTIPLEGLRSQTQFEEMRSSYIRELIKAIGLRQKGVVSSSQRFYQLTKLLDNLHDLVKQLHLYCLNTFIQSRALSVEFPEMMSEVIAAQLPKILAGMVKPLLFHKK

endometrium = details: animal models
[3] = ovariectomized rat, compared with progesterone

C#C[C@]1(OC(C)=O)CC[C@H]2[C@@H]3CCC4=CC(=NO)CC[C@@H]4[C@H]3CC[C@@]21CC (mixture of isomers) [norgestimate]
effect on serum hormone binding globulin (SHBG) levels [1]: minimal effect | affinity for endometrial progesterone receptors [2]: high affinity | endometrium in comparison to other, more androgenic, progestins (endometrium): remains relatively thick and supported | maintenance of pregnancy [3]: maintains pregnancy as well as progesterone
